This is an account of results in US5593970A, “Heterocyclic anthracycline analogs” (priority 1994, dated 1997).

One assay relates to MCF7/ADR. Put plainly: Soft agar colony formation disk diffusion assay. In kind it is cell-based, human. The text has this: (§1) A more elaborate version of this fundamental assay, the soft agar colony formation disk diffusion assay was used. This assay defines the relative activity of one particular drug versus a tumoral cell line type. The effect of the test drug against tumoral cells could be measured by its inhibitory capacity against colony formation after the delivery of the compound, in different concentrations on an filter disk(4). A modified technique of this assay was used in order to investigate the antiproliferative activity of candidate compounds. Tumoral cells from solid tumors and ascitic lines were plated separately in a two layer agar matrix. Cell lines to be tested were suspended in an upper layer of 0.4% Noble agar (Difco#00142-01) in RPMI-1066 (Gibco#3201875) at a yield varying between 10^4 to 2×10^5 cells per 60 mm Petri dish. Plating efficiency was determined for each line in order to achieve an optimal number of colonies per dish. Plates were examined before drug administration to confirm a uniform dispersion of single cells. The bottom layer consisted of 0.8% Noble agar, 0.8% Tryptic Soy Broth (difco#0037001)in CMRL-1066/Fischer's. The bottom layers were used within 2 and 9 days of preparation. Plated dishes (bottom layer of agar, upper layer of cells and administered drug were incubated in humidified atmosphere at 37° C., 5% CO2 for 10-20 days depending upon the time necessary to observe adequate colonies (defined as a cell aggregate of more than 50 cells) both control and drug inhibited. Drugs were administered on a paper filter disk (Whatman No. 1) of 6.5 mm diameter placed on the upper layer at 1/3 distance from the edge of the dish. The anti-clonogenic activity of the compounds was measured as the zone of inhibition from the disk edge to the most proximal colonies. This zone of inhibition was checked on an inverted microscope (40×) and was measured with a micrometer mounted in the eyepiece. The ocular micrometer was calibrated with a stage micrometer set for a particular combination of ocular and objective lenses. […] We made a modification of the initial technique by not plating a solid tumor and a leukemia simultaneously in the same Petri dish. Anti-clonogenic tests performed on leukemia cell line have helped in the discovery of the majority of current clinically used cytostatic drugs. Our tests on solid tumor lines (animal or human) may help define active compounds with solid tumor specificity. […] HUMAN TUMORS. […] LS180 (13) and BE1(14) were obtained from the Oncology Dept. of the Montreal General Hospital. […] Cell lines were routinely passaged twice a week by trypsinization and maintained in 25, or 75-sq. cm Falcon Plastic flasks at 37° C., 5% CO2 in humidified atmosphere. Both compounds were dissolved in DMSO (1 mg/100 ul) and brought to final volume (250 ul) with Millipore deionized sterile water. Further dilutions were made with […] volume of 25 ul of freshly prepared solution was placed on the filter disk and allowed to dry.

Another assay relates to MCF7. The assay can be described thus: Soft agar colony formation disk diffusion assay. The assay is classed as cell-based, human.
Text: as §1

Another assay deals with tumor cell lines. Put plainly: Tumor clonogenic assay, overall. The assay is classed as cell-based. An excerpt: For the IN VITRO test, we chose a tumor clonogenic assay which measures the ability of tumoral cells to form colonies (multicellular growth units) as a result of cell division in semisolid agar support (2,3). A more elaborate version of this fundamental assay, the soft agar colony formation disk diffusion assay was used. This assay defines the relative activity of one particular drug versus a tumoral cell line type. The effect of the test drug against tumoral cells could be measured by its inhibitory capacity against colony formation after the delivery of the compound, in different concentrations on an filter disk(4).
A modified technique of this assay was used in order to investigate the antiproliferative activity of candidate compounds. Tumoral cells from solid tumors and ascitic lines were plated separately in a two layer agar matrix. Cell lines to be tested were suspended in an upper layer of 0.4% Noble agar (Difco#00142-01) in RPMI-1066 (Gibco#3201875) at a yield varying between 10^4 to 2×10^5 cells per 60 mm Petri dish. Plating efficiency was determined for each line in order to achieve an optimal number of colonies per dish. Plates were examined before drug administration to confirm a uniform dispersion of single cells. The bottom layer consisted of 0.8% Noble agar, 0.8% Tryptic Soy Broth (difco#0037001)in CMRL-1066/Fischer's. The bottom layers were used within 2 and 9 days of preparation. Plated dishes (bottom layer of agar, upper layer of cells and administered drug were incubated in humidified atmosphere at 37° C., 5% CO2 for 10-20 days depending upon the time necessary to observe adequate colonies (defined as a cell aggregate of more than 50 cells) both control and drug inhibited. Drugs were administered on a paper filter disk (Whatman No. 1) of 6.5 mm diameter placed on the upper layer at 1/3 distance from the edge of the dish. The anti-clonogenic activity of the compounds was measured as the zone of inhibition from the disk edge to the most proximal colonies. This zone of inhibition was checked on an inverted microscope (40×) and was measured with a micrometer mounted in the eyepiece. The ocular micrometer was calibrated with a stage micrometer set for a particular combination of ocular and objective lenses.
200 units of activity are equivalent to 6.5 mm distance from the disk edge to the first colonies (5). […] We made a modification of the initial technique by not plating a solid tumor and a leukemia simultaneously in the same Petri dish. Anti-clonogenic tests performed on leukemia cell line have helped in the discovery of the majority of current clinically used cytostatic drugs. Our tests on solid tumor lines (animal or human) may help define active compounds with solid tumor specificity. This specific activity would be indicated by a higher level of cloning inhibition in solid tumors versus leukemias (6).

A further assay concerns LS180. Put plainly: Soft agar colony formation disk diffusion assay. In kind it is cell-based, human.
Text: as §1

The test system of another assay is HT29. The assay can be described thus: Soft agar colony formation disk diffusion assay. In kind it is cell-based, human.
Text: as §1, with “This assay defines the relative activity of one particular drug versus a tumoral cell line type.” left out, “Plates were examined before drug administration to confirm a uniform dispersion of single cells.” left out, “dish.” for “dish. Anti-clonogenic tests performed on leukemia cell line have helped in the discovery of the majority of current clinically used cytostatic drugs. Our tests on solid tumor lines (animal or human) may help define active compounds with solid tumor specificity.”

For the next assay, the system named is MATB.WT. Put plainly: Soft agar colony formation disk diffusion assay. In kind it is cell-based, rat. An excerpt:
(§2) A more elaborate version of this fundamental assay, the soft agar colony formation disk diffusion assay was used. This assay defines the relative activity of one particular drug versus a tumoral cell line type. The effect of the test drug against tumoral cells could be measured by its inhibitory capacity against colony formation after the delivery of the compound, in different concentrations on an filter disk(4). A modified technique of this assay was used in order to investigate the antiproliferative activity of candidate compounds. Tumoral cells from solid tumors and ascitic lines were plated separately in a two layer agar matrix. Cell lines to be tested were suspended in an upper layer of 0.4% Noble agar (Difco#00142-01) in RPMI-1066 (Gibco#3201875) at a yield varying between 10^4 to 2×10^5 cells per 60 mm Petri dish. Plating efficiency was determined for each line in order to achieve an optimal number of colonies per dish. Plates were examined before drug administration to confirm a uniform dispersion of single cells. The bottom layer consisted of 0.8% Noble agar, 0.8% Tryptic Soy Broth (difco#0037001)in CMRL-1066/Fischer's. The bottom layers were used within 2 and 9 days of preparation. Plated dishes (bottom layer of agar, upper layer of cells and administered drug were incubated in humidified atmosphere at 37° C., 5% CO2 for 10-20 days depending upon the time necessary to observe adequate colonies (defined as a cell aggregate of more than 50 cells) both control and drug inhibited. Drugs were administered on a paper filter disk (Whatman No. 1) of 6.5 mm diameter placed on the upper layer at 1/3 distance from the edge of the dish. The anti-clonogenic activity of the compounds was measured as the zone of inhibition from the disk edge to the most proximal colonies. This zone of inhibition was checked on an inverted microscope (40×) and was measured with a micrometer mounted in the eyepiece. The ocular micrometer was calibrated with a stage micrometer set for a particular combination of ocular and objective lenses. […] We made a modification of the initial technique by not plating a solid tumor and a leukemia simultaneously in the same Petri dish. Anti-clonogenic tests performed on leukemia cell line have helped in the discovery of the majority of current clinically used cytostatic drugs. Our tests on solid tumor lines (animal or human) may help define active compounds with solid tumor specificity. […] Murine tumors were maintained IN VIVO in order to diminish the selection of subpopulations of cells normally present in the heterogenous IN VIVO tumor. The actual drug sensitivity assay was done IN VITRO. For these experiments cells from freshly excised tumors or from ascitic fluids were maintained in RPMI-1066. Both compounds were dissolved in DMSO (1 mg/100 ul) and brought to final volume (250 ul) with Millipore deionized sterile water. Further dilutions were made with […] volume of 25 ul of freshly prepared solution was placed on the filter disk and allowed to dry.

The next assay has as its system MATB/ADR. Put plainly: Soft agar colony formation disk diffusion assay. The assay is classed as cell-based, rat.
Text: as §2

A further assay has as its system B16. Put plainly: Soft agar colony formation disk diffusion assay. In kind it is cell-based, murine.
Text: as §2

In the next assay the test system is M5076. Put plainly: Soft agar colony formation disk diffusion assay. The assay is classed as cell-based, murine.
Text: as §2

A further assay concerns P388/ADR. The assay can be described thus: Soft agar colony formation disk diffusion assay. In kind it is cell-based, murine.
Text: as §2

The subject of a further assay is P388. The assay can be described thus: Soft agar colony formation disk diffusion assay. In kind it is cell-based, murine.
Text: as §2

Another assay deals with tumor. The conditions noted are these: cited from earlier work.
For another assay, the system named is bacteria and fungi. Conditions: cited from earlier work.

Regarding `COC(=O)[C@H]1CC2=C(C(=O)c3cc4ccccc4c(O)c3C2=O)[C@H](O[C@H]2C[C@H](NC(=O)C(F)(F)F)[C@H](O)[C@H](C)O2)O1` [BCH-706], the “cross resistance with adriamycin, MCF7/ADR vs MCF7” value in the assay with MCF7/ADR is recorded as “lack of cross resistance with adriamycin”. The zone of inhibition with MCF7/ADR (10 μg/DISK) was found to be 91.5 ± 8.6 Zone Units; in the assay with MCF7/ADR (100 μg/DISK) it was 183.0 Zone Units; in the assay with MCF7 (10 μg/DISK) it was 103.7 ± 25.5 Zone Units; in the assay with MCF7 (100 μg/DISK), 213.5 ± 43.1 Zone Units. Moreover, in the assay with tumor cell lines, the “activity and specificity in words” value is on record as “most active”.

For `COCOCC(=O)C1CC2=C(CO1)C(=O)c1c(cc3ccccc3c1O)C2=O` (stereo not drawn) [BCH-714, 3-(2-methoxymethoxy)aceto-11-hydroxy-1,2,3,4-tetrahydro-(2-oxygen)-napthacene-5,12-dione], the zone of inhibition in the assay on LS180 (10 μg/DISK) is 9.0 ± 4.2 Zone Units; in the assay with LS180 (100 μg/DISK), 42.0 ± 26.0 Zone Units; in the assay with MCF7/ADR (10 μg/DISK), 0 Zone Units; in the assay on MCF7/ADR (100 μg/DISK), 0 Zone Units; with MCF7 (10 μg/DISK) it was 0 Zone Units; in the assay with MCF7 (100 μg/DISK) it was 0 Zone Units. The zone of inhibition with HT29 (10 μg/DISK), in the assay on HT29 (100 μg/DISK), with MATB.WT (10 μg/DISK), in the assay with MATB.WT (100 μg/DISK), in the assay with MATB/ADR (10 μg/DISK) and in the assay on MATB/ADR (100 μg/DISK) was 0 Zone Units in each case. Besides, the zone of inhibition is 0 Zone Units with B16 (10 μg/DISK); 0 Zone Units with B16 (100 μg/DISK); 15.5 ± 5.0 Zone Units in the assay on M5076 (10 μg/DISK); 55.0 ± 8.4 Zone Units with M5076 (100 μg/DISK); 0 Zone Units in the assay on P388/ADR (10 μg/DISK); 0 Zone Units in the assay with P388/ADR (100 μg/DISK). The zone of inhibition with P388 (10 μg/DISK) stood at 0 Zone Units; in the assay with P388 (100 μg/DISK) it was 27.0 ± 4.2 Zone Units.

`CC1OC2CC(=O)OC2C2=C1C(=O)c1c(O)c3c(c(O)c1C2=O)C1CC(O)C3(O)C(C)O1` (stereo not drawn) [Granaticin]: in the assay on tumor, the antitumor activity entry is recorded as “antitumor activity”.

As for `CC(=O)N1Cc2c(O)c3c(c(O)c2C(O[C@H]2C[C@H](NC(=O)C(F)(F)F)[C@H](O)[C@H](C)O2)C1)C(=O)c1ccccc1C3=O` (stereo partly drawn) [N-(trifluoroacetyl)-4-demethoxy-9-azadaunorubicin], the antitumor activity entry with tumor is reported as “no antitumor activity”.

`CC1OC2OC(=O)OC2C2=C1C(=O)c1c(O)cccc1C2=O` (stereo not drawn) [kalafungin]: the “antibacterial and antifungal activity” value in the assay with bacteria and fungi is on record as “potent antibacterial as well as antifungal activity”.

In the case of `C[C@@H]1O[C@@H](CC(=O)O)CC2=C1C(=O)c1c(O)cccc1C2=O` [nanaomycin A], the “antibacterial and antifungal activity” value in the assay on bacteria and fungi is listed as “potent antibacterial as well as antifungal activity”.
